The values that follow come from patent publication US20030236212A1, “Functionalized long chain derivatives as acyl coenzyme-A mimics, compositions thereof, and methods of cholesterol management and related uses” (priority 2002, published 2003).

The term IC50 denotes the concentration that inhibits the measured activity by half. Broadly, the melting point is the temperature of the solid-liquid transition.

One data set relates to primary rat hepatocytes. Put plainly: Synthesis of total lipids (14C-acetate labeling) in primary rat hepatocytes. It counts as cell-based. As to conditions: for IC50: Rattus norvegicus, Hepatocyte, read-out: IC50, inhibition of lipid synthesis in primary hepatocytes. As for the experimental part: A male Sprague-Dawley rate was anesthetized by administration of sodium pentobarbitol by intraperitoneal at 80 mg/kg. In situ perfusion of the liver was performed as follows. The abdomen of the animal was opened, the portal vein canulated, and the liver perfused with WOSH solution (149 mM NaCl, 9.2 mM Na HEPES, 1.7 mM Fructose, 0.5 mM EGTA, 0.029 mM Phenol red, 10 U/ml heparin, pH 7.5) at a flow rate of 30 ml/min for 6 minutes. To digest the liver, DSC solution (6.7 mM KCl, 143 mM NaCl, 9.2 mM Na HEPES, 5 mM CaCl2-2H2O, 1.7 mM Fructose, 0.029 mM Phenol red, 0.2% BSA, 100 U/ml collagenase Type 1,160 BAEE/ml trypsin inhibitor, pH 7.5) was perfused through the liver at a flow rate of 30 ml/min for 6 minutes at a temperature of 37° C. After digestion, cells were dispersed in a solution of DMEM-(DMEM containing 2 mM GlutMax-1, 0.2% BSA, 5% FBS, 12 nM insulin, 1.2 μM hydrocortisone) to stop the digestion process. The crude cell suspension was filtered through three layers of stainless steel mesh with pore sizes of 250, 106, and 75 μm respectively. Filtered cells were centrifuged at 50×g for two minutes and the supernatant discarded. The resulting cell pellet was resuspended in DMEM and centrifuged again. This final cell pellet was resuspended in DMEM+HS solution (DMEM containing 2 mM GlutMax-1, 20 mM delta-aminolevulinic acid, 17.4 mM MEM nonessential amino acids, 20% FBS, 12 nM insulin, 1.2 μM hydrocortisone) and plated to form monolayer cultures at a density of 100×10^3 cells/cm^2 on collagen coated culture dishes.
To test the effect of an illustrative compound of the invention on synthesis rates of total lipids, the monolayer cultures were exposed to 1, 3, 10, 30, 100, or 300 μM of Compound A or 10 μM of Compound 1 in DMEM+containing 1 μCi/ml 14C-acetate, D-glucose, hepes, glutamine, leucine, alanine, lactate, pyruvate, non-essential amino acids, BSA, and gentamicine. Control cells were exposed to the same media lacking lovastatin or the test compounds. All cells were exposed to 0.1% DMSO. Metabolic labeling with ^14C-acetate continued for 4 hr at 37° C. After labeling, cells were washed twice with 1 mL of PBS followed by addition of scintallant (Microscent E) and counted on Topcount®.

A further data set relates to obese female Zucker rats. Put plainly: Oral daily treatment of obese female Zucker rats for 14 days (body weight, serum lipids, glucose, insulin). It is filed as in vivo, rat. On the set-up: HDL-C / Glucose / Insulin / NEFA / BHA / TG / TC / Non HDL-C: unit not given here. As to conditions: for change in vivo at 100 mg/kg/day / change in vivo at 100 mg/kg: 100 mg/kg/day. The method, then: The dosing vehicle was administered to control animals in parallel experiments.
Body weight was determined daily prior to dosing. Animals were allowed free access to rodent chow and water throughout the study. Blood glucose was determined after a 6-hour fast in the afternoon without anesthesia from a tail vein. Serum was also prepared from a blood sample subsequently obtained from the orbital venous plexus (with O2/CO2 anesthesia) prior to and after one week treatment and used lipid and insulin determinations. At two weeks, blood glucose was again determined after a 6-hour fast without anesthesia from a tail vein. Soon thereafter, animals were sacrificed by CO2 inhalation in the afternoon and cardiac blood serum was collected and assessed for various lipids and insulin.

Where [1] appears, read: Rattus norvegicus, 336 h, obese female Zucker rats, oral daily, fourteen days, read-out: % wt. gain.
Where [2] appears, read: Rattus norvegicus, 336 h, obese female Zucker rats, oral daily, fourteen days, read-out: BHA, Percent Change from Pre-treatment.
[3] abbreviates: Rattus norvegicus, 336 h, obese female Zucker rats, oral daily, fourteen days, read-out: Glucose, Percent Change from Pre-treatment.
Where [4] appears, read: Rattus norvegicus, 336 h, obese female Zucker rats, oral daily, fourteen days, read-out: HDL-C, Percent Change from Pre-treatment.
Setting [5] is: Rattus norvegicus, 336 h, obese female Zucker rats, oral daily, fourteen days, read-out: Insulin, Percent Change from Pre-treatment.
The mark [6] stands for this setting: Rattus norvegicus, 336 h, obese female Zucker rats, oral daily, fourteen days, read-out: NEFA, Percent Change from Pre-treatment.
Where [7] appears, read: Rattus norvegicus, 336 h, obese female Zucker rats, oral daily, fourteen days, read-out: Non HDL-C, Percent Change from Pre-treatment.
[8] abbreviates: Rattus norvegicus, 336 h, obese female Zucker rats, oral daily, fourteen days, read-out: TC, Percent Change from Pre-treatment.
Where [9] appears, read: Rattus norvegicus, 336 h, obese female Zucker rats, oral daily, fourteen days, read-out: TG, Percent Change from Pre-treatment.
Where [10] appears, read: obese female Zucker rats, oral gavage daily 14 days, 5 mg/kg.
Setting [11] is: obese female Zucker rats, oral, 14 days, 100 mg/kg/day (Table 1).

Each structure is given as a SMILES string. Like-named read-outs stand apart in the source and are kept apart here.

As to `CC(C)(CCCCCC(=O)CCCCCC(C)(C)COP(=O)(O)O)COP(=O)(O)O`, the IC50 in the data set on primary rat hepatocytes was determined as 35 µM.
For `CC(=O)C(CCCCC(C)(C)CO)CCCCC(C)(C)CO` [drawing 124], in the data set with primary rat hepatocytes, the IC50 turned out to be 62 µM.
In the case of `CC(C)(CO)CCCCN(O)CCCCC(C)(C)CO` [drawing 125], in the data set on primary rat hepatocytes, the IC50 stood at 64 µM.
Consider `CC(C)(CCCCCC(=O)CCCCCC(C)(C)COP(=O)(O)O)COP(=O)(O)O.N.N` [Compound E, Phosphoric Acid mono-(2,2,14,14-tetramethyl-8-oxo-15-phosphonooxy-pentadecyl) Ester, Diammonium Salt], for which the melting point fell in the range of 187 to 189 °C. For the same compound, in the data set with obese female Zucker rats (Rattus norvegicus, 336 h, obese female Zucker rats, oral daily, fourteen days, 10 mg/kg/day, read-out: % wt. gain), the change in vivo at 10 mg/kg/day was found to be 11%. The change in vivo at 10 mg/kg in the data set on obese female Zucker rats (Rattus norvegicus, 336 h, obese female Zucker rats, oral daily, fourteen days, 10 mg/kg/day, read-out: BHA, Percent Change from Pre-treatment) came to 140%. Also, the change in vivo at 10 mg/kg with obese female Zucker rats (Rattus norvegicus, 336 h, obese female Zucker rats, oral daily, fourteen days, 10 mg/kg/day, read-out: Glucose, Percent Change from Pre-treatment) is -6%. Further, the change in vivo at 10 mg/kg in the data set on obese female Zucker rats (Rattus norvegicus, 336 h, obese female Zucker rats, oral daily, fourteen days, 10 mg/kg/day, read-out: HDL-C, Percent Change from Pre-treatment) amounted to 129%. Moreover, the change in vivo at 10 mg/kg in the data set with obese female Zucker rats (Rattus norvegicus, 336 h, obese female Zucker rats, oral daily, fourteen days, 10 mg/kg/day, read-out: Insulin, Percent Change from Pre-treatment) amounted to 25%. The change in vivo at 10 mg/kg with obese female Zucker rats (Rattus norvegicus, 336 h, obese female Zucker rats, oral daily, fourteen days, 10 mg/kg/day, read-out: NEFA, Percent Change from Pre-treatment) was -5%. Also, the change in vivo at 10 mg/kg with obese female Zucker rats (Rattus norvegicus, 336 h, obese female Zucker rats, oral daily, fourteen days, 10 mg/kg/day, read-out: Non HDL-C, Percent Change from Pre-treatment) was found to be 6%. Besides, in the data set on obese female Zucker rats (Rattus norvegicus, 336 h, obese female Zucker rats, oral daily, fourteen days, 10 mg/kg/day, read-out: TC, Percent Change from Pre-treatment), the change in vivo at 10 mg/kg stood at 3%. The change in vivo at 10 mg/kg in the data set on obese female Zucker rats (Rattus norvegicus, 336 h, obese female Zucker rats, oral daily, fourteen days, 10 mg/kg/day, read-out: TG, Percent Change from Pre-treatment) was determined as 39%. Further, in the data set with obese female Zucker rats (Rattus norvegicus, 336 h, obese female Zucker rats, oral daily, fourteen days, 30 mg/kg/day, read-out: % wt. gain), the change in vivo at 30 mg/kg/day came to 10%. For the same compound, the change in vivo at 30 mg/kg in the data set on obese female Zucker rats (Rattus norvegicus, 336 h, obese female Zucker rats, oral daily, fourteen days, 30 mg/kg/day, read-out: BHA, Percent Change from Pre-treatment) was found to be 73%. Moreover, the change in vivo at 30 mg/kg in the data set with obese female Zucker rats (Rattus norvegicus, 336 h, obese female Zucker rats, oral daily, fourteen days, 30 mg/kg/day, read-out: Glucose, Percent Change from Pre-treatment) was -1%. Besides, the change in vivo at 30 mg/kg in the data set on obese female Zucker rats (Rattus norvegicus, 336 h, obese female Zucker rats, oral daily, fourteen days, 30 mg/kg/day, read-out: HDL-C, Percent Change from Pre-treatment) stood at 174%. Moreover, the change in vivo at 30 mg/kg in the data set with obese female Zucker rats (Rattus norvegicus, 336 h, obese female Zucker rats, oral daily, fourteen days, 30 mg/kg/day, read-out: Insulin, Percent Change from Pre-treatment) is -12%. The change in vivo at 30 mg/kg in the data set with obese female Zucker rats (Rattus norvegicus, 336 h, obese female Zucker rats, oral daily, fourteen days, 30 mg/kg/day, read-out: NEFA, Percent Change from Pre-treatment) is -28%. Besides, the change in vivo at 30 mg/kg in the data set with obese female Zucker rats (Rattus norvegicus, 336 h, obese female Zucker rats, oral daily, fourteen days, 30 mg/kg/day, read-out: Non HDL-C, Percent Change from Pre-treatment) is 51%. For the same compound, the change in vivo at 30 mg/kg in the data set with obese female Zucker rats (Rattus norvegicus, 336 h, obese female Zucker rats, oral daily, fourteen days, 30 mg/kg/day, read-out: TC, Percent Change from Pre-treatment) worked out at 126%. Further, the change in vivo at 30 mg/kg in the data set on obese female Zucker rats (Rattus norvegicus, 336 h, obese female Zucker rats, oral daily, fourteen days, 30 mg/kg/day, read-out: TG, Percent Change from Pre-treatment) is -2%. For the same compound, in the data set with obese female Zucker rats (setting [1]), the change in vivo at 100 mg/kg/day is 4%. Further, the change in vivo at 100 mg/kg in the data set on obese female Zucker rats (setting [2]) is 134%. The change in vivo at 100 mg/kg with obese female Zucker rats (setting [3]) was -4%. In the data set with obese female Zucker rats (setting [4]), the change in vivo at 100 mg/kg amounted to 246%. Further, in the data set on obese female Zucker rats (setting [5]), the change in vivo at 100 mg/kg was -15%. Also, in the data set with obese female Zucker rats (setting [6]), the change in vivo at 100 mg/kg is -40%. For the same compound, in the data set with obese female Zucker rats (setting [7]), the change in vivo at 100 mg/kg was 20%. For the same compound, in the data set on obese female Zucker rats (setting [8]), the change in vivo at 100 mg/kg was found to be 161%. Further, the change in vivo at 100 mg/kg in the data set with obese female Zucker rats (setting [9]) was -51%.
On to `CC(C)(CCCCCOCCCCCC(C)(C)COP(=O)(O)O)COP(=O)(O)O`, for which the IC50 in the data set with primary rat hepatocytes stood at 28 µM.
Compound `CC(=O)C(CCCCC(C)(C)CO)CCCCC(C)(C)CO` [Compound G, 9-Hydroxy-3-(6-hydroxy-5,5-dimethylhexyl)-8,8-dimethylnonan-2-one] showed a melting point of 178 to 180 °C.
In the case of `CC(C)(CO)CCCCOCCCCC(C)(C)CO` [Compound 1, bis(6-Hydroxy-5,5-dimethylhexyl)ether, reference compound], in the data set with obese female Zucker rats (fasted obese female Zucker rats, oral gavage daily 14 days, 5 mg/kg), the blood glucose levels result is on record as “reduction”. Besides, the “serum insulin relative to pretreatment” value in the data set with obese female Zucker rats (fasted obese female Zucker rats, two weeks of treatment, 5 mg/kg) is reported as “increased”. In the data set on obese female Zucker rats (setting [10]), the “liver to body weight” value was “increased”; the serum total cholesterol entry was “only modestly elevated”; the “weight gain, percent of initial weight after two weeks” value stood at 1.5%. Further, in the data set on obese female Zucker rats (setting [11]), the BHA was determined as 1.6 ± 0.3, the Glucose was −25.3 ± 7.2, the HDL-C was determined as 113.9 ± 26.4 and the Insulin turned out to be 42.1 ± 23. For the same compound, in the data set with obese female Zucker rats (setting [11]), the NEFA was found to be 0.056 ± 0.002, the “Non HDL-C” value is reported as −26.9 ± 9.3, the TC is listed as −82.5 ± 3.6 and the TG is on record as 468.8 ± 139.7. For the same compound, the “reduction of rates of total lipid synthesis” value in the data set on primary rat hepatocytes (rat hepatocyte cells, 10 μM, 14C-acetate 4 hr, vs vehicle control) is recorded as “at least 65%”.
Take `CC(C)(CCCCOCCCCC(C)(C)COP(=O)(O)O)COP(=O)(O)O`: in the data set with primary rat hepatocytes, the IC50 came to 43 µM.
For `CC(C)(CO)CCCCOC(=O)CCCCC(C)(C)CO` [drawing 126], in the data set on primary rat hepatocytes, the IC50 was 14 µM.
For the compound `CC(C)(CCCCC(=O)CCCCC(C)(C)COP(=O)(O)O)COP(=O)(O)O`, the IC50 in the data set with primary rat hepatocytes turned out to be 16 µM.
`CC(C)(CO)CCCCN(O)CCCCC(C)(C)CO` [Compound I] displayed a melting point of 73 °C.
For the compound `CC(C)(CO)CCCCOC(=O)CCCCC(C)(C)CO` [Compound K, 7-Hydroxy-6,6-dimethylheptanoic acid 6-hydroxy-5,5-dimethylhexyl ester], the change in vivo at 100 mg/kg/day in the data set on obese female Zucker rats (setting [1]) was 11%. Besides, the change in vivo at 100 mg/kg in the data set with obese female Zucker rats (setting [2]) was 103%; in the data set on obese female Zucker rats (setting [3]), -21%; with obese female Zucker rats (setting [4]), 23%; in the data set with obese female Zucker rats (setting [5]) it was 0%; in the data set with obese female Zucker rats (setting [6]), 43%; in the data set with obese female Zucker rats (setting [7]) it was -5%. Moreover, the change in vivo at 100 mg/kg turned out to be 12% in the data set with obese female Zucker rats (setting [8]) and 7% with obese female Zucker rats (setting [9]).
